Values belong to the molecule of their own block, whether it stands above or below them.
Legend:
[1] = biological target: Cyclin-dependent kinase 11B (Homo sapiens) (UniProt P21127); assay: Selectivity interaction (KinomeScan (DiscoverX)) EUB0001049a CDK11B; settings: at 1 µM
[2] = biological target: Serine/threonine-protein kinase 32A (Homo sapiens) (UniProt Q8WU08); assay: Selectivity interaction (KinomeScan (DiscoverX)) EUB0001049a STK32A; settings: at 1 µM
[3] = biological target: Cyclin-dependent kinase 3 (Homo sapiens) (UniProt Q00526); assay: Selectivity interaction (Ambit KINOMEscan and KiNATiv profiling in Jurkat cells) EUB0000090b CDK3; type: cell-based; settings: at 1 µM
[4] = biological target: Non-receptor tyrosine-protein kinase TYK2 (Homo sapiens, UniProt P29597); assay: Selectivity interaction (ActivX KiNativ screen (kinase selectivity in THP-1 cell lysates)) EUB0000639a TYK2; type: subcellular; settings: lysate, at 0.04 µM
[5] = biological target: Histone-lysine N-methyltransferase ASH1L (Homo sapiens) (UniProt Q9NR48); settings: at 1 µM
[6] = biological target: Protein kinase C beta type (Homo sapiens, UniProt P05771); assay: Selectivity interaction (Kinase panel (Z-LYTE Assay)) EUB0001632a PRKCB; settings: at 10 µM
Sequence of Protein kinase C beta type (P05771 2-671 limits assumed): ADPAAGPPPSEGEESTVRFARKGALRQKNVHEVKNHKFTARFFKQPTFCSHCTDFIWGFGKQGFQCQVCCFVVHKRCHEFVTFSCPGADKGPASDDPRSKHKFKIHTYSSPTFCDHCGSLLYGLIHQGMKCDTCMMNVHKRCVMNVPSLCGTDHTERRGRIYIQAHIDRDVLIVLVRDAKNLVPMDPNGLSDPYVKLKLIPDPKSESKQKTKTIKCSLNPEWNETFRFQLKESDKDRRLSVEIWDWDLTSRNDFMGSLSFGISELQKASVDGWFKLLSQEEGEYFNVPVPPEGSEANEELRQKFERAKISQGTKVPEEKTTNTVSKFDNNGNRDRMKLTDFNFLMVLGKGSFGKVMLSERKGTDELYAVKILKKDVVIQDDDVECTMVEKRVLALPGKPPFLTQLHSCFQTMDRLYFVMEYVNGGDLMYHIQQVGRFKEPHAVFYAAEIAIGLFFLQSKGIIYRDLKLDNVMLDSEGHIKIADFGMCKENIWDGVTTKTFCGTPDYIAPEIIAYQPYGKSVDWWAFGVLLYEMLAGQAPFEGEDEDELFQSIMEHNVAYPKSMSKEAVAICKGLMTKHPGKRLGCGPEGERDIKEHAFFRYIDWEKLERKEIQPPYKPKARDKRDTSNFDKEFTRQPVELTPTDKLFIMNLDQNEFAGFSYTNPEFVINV

[7] = biological target: Phosphorylase b kinase gamma catalytic chain, skeletal muscle/heart isoform (Homo sapiens) (UniProt Q16816); settings: at 10 µM
[8] = biological target: Serine/threonine-protein kinase PLK2 (Homo sapiens, UniProt Q9NYY3); assay: Selectivity interaction (KinomeScan (DiscoverX)) EUB0000595a PLK2; settings: at 10 µM
Sequence of Serine/threonine-protein kinase PLK2 (Q9NYY3 whole entry, looked up): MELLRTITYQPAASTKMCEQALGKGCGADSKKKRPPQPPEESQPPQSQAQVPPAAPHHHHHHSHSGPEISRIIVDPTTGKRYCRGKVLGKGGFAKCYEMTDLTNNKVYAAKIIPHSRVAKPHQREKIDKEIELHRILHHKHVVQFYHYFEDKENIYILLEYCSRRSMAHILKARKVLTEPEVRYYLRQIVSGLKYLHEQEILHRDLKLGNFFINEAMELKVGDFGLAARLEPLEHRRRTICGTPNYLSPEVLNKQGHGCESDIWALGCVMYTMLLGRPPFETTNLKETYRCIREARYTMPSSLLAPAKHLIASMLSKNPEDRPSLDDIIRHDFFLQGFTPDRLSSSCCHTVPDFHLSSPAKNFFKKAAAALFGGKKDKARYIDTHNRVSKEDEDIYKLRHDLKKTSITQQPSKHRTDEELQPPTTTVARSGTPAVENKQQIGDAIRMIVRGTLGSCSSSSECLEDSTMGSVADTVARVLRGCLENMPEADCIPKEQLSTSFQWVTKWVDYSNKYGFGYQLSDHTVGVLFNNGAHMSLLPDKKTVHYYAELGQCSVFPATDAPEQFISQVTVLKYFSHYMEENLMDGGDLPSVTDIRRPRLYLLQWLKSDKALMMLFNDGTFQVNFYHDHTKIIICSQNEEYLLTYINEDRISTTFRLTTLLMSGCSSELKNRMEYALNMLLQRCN

[9] = biological target: Serine/threonine-protein kinase PRP4 homolog (Homo sapiens) (UniProt Q13523); assay: Selectivity interaction (KinomeScan (DiscoverX)) EUB0000595a PRPF4B; settings: at 10 µM
Sequence of Serine/threonine-protein kinase PRP4 homolog (Homo sapiens) (Q13523 whole entry): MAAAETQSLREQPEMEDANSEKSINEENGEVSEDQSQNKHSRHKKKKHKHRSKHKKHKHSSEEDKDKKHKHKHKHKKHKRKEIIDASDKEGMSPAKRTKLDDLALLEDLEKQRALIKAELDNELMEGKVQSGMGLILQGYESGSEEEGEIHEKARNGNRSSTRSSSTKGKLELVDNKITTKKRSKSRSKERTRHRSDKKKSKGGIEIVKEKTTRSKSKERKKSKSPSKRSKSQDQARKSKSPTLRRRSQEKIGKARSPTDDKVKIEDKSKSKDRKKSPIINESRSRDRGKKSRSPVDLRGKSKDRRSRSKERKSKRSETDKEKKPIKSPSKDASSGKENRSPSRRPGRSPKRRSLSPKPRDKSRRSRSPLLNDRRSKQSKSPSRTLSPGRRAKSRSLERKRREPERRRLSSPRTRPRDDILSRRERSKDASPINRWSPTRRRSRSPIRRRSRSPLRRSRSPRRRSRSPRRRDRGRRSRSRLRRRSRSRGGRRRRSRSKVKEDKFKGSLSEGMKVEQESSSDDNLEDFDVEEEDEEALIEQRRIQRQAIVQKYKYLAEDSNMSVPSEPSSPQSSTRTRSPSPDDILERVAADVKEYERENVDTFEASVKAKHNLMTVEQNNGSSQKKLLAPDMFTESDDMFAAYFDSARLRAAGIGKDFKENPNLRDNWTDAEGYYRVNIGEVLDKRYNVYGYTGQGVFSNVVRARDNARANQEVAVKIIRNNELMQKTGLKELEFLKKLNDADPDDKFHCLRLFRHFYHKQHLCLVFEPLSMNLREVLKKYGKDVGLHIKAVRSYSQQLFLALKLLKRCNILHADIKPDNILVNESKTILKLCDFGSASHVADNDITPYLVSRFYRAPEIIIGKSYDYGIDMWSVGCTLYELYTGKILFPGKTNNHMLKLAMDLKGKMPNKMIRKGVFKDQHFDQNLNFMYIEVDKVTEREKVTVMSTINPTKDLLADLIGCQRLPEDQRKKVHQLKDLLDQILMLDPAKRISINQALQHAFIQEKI

[10] = biological target: Ephrin type-A receptor 7 (Homo sapiens) (UniProt Q15375); assay: Selectivity interaction (ProQinase) EUB0000171b EPHA7
Sequence of Ephrin type-A receptor 7 (Homo sapiens) (Q15375 28-998 limits assumed): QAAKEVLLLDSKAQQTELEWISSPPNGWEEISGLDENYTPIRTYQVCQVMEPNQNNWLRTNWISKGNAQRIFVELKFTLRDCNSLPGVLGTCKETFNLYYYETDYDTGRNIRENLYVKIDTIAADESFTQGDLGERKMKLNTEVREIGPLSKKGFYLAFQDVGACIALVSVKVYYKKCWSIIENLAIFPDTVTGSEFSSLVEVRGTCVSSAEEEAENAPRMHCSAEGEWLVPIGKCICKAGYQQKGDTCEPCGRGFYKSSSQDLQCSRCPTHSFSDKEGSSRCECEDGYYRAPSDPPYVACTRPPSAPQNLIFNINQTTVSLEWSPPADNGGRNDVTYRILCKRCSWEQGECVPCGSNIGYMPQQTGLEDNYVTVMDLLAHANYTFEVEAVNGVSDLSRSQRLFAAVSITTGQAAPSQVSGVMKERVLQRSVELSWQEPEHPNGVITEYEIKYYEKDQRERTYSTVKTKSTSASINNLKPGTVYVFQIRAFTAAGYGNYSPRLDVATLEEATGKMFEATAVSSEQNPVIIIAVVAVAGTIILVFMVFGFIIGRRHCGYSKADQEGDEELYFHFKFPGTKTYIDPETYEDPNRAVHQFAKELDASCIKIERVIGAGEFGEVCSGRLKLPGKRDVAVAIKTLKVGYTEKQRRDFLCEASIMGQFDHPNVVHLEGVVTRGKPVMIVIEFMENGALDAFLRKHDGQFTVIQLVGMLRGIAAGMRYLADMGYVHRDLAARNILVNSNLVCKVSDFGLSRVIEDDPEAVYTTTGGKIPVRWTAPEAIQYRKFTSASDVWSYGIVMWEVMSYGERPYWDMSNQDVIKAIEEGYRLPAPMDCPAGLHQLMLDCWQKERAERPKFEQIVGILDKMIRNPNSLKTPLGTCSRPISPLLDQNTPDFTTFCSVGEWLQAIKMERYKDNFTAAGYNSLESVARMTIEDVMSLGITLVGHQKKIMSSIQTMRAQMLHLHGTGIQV

[11] = biological target: Serine/threonine-protein kinase mTOR (Homo sapiens, UniProt P42345); assay: Selectivity interaction (ProQinase) EUB0000171b MTOR
[12] = biological target: T1, Megakaryocyte-associated tyrosine-protein kinase (Homo sapiens) (UniProt P42679); assay: Selectivity interaction (KinomeScan (DiscoverX)) EUB0000045b MATK
T1 sequence (whole entry): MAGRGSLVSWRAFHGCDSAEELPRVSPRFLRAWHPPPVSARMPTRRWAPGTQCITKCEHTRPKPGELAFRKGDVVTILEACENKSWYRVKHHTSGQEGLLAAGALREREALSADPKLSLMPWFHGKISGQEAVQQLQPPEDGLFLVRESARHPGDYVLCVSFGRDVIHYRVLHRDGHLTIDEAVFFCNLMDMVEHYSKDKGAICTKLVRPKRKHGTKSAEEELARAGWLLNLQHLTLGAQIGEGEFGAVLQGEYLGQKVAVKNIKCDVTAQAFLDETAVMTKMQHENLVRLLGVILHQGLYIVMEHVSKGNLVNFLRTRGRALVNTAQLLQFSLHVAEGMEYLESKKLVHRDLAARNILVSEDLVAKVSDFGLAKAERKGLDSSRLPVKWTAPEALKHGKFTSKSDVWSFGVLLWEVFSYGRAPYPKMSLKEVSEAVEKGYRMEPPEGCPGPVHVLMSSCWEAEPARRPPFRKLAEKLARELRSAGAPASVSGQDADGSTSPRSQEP

[13] = biological target: T2, Dual specificity tyrosine-phosphorylation-regulated kinase 2 (Homo sapiens) (UniProt Q92630); assay: Selectivity interaction (KinomeScan (DiscoverX)) EUB0001619a DYRK2; settings: at 1 µM
T2 sequence (whole entry): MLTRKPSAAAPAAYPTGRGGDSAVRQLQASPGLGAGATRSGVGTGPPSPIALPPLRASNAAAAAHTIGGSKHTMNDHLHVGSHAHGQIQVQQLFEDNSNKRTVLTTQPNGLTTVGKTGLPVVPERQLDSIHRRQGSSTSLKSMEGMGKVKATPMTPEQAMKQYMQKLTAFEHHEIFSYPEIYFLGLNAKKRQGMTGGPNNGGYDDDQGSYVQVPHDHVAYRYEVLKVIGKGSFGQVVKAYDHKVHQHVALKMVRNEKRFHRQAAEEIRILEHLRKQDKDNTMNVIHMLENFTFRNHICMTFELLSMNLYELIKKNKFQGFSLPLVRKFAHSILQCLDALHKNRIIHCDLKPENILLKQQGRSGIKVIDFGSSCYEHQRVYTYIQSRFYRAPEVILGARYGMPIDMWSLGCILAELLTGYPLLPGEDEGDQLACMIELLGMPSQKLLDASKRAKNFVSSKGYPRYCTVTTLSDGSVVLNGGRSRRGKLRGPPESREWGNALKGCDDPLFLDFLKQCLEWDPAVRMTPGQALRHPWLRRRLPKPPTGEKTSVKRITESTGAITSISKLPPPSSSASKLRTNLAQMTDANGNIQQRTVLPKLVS

[14] = biological target: Inositol-tetrakisphosphate 1-kinase (Homo sapiens) (UniProt Q13572); assay: Selectivity interaction (ActivX KiNativ screen (ex vivo kinase selectivity in human PBMCs)) EUB0001619a ITPK1; type: cell-based; settings: PBMC, at 1 µM
[15] = biological target: T3, Homeodomain-interacting protein kinase 4 (Homo sapiens) (UniProt Q8NE63); assay: Selectivity interaction (KinomeScan (DiscoverX)) EUB0000618a HIPK4; settings: at 10 µM
T3 sequence (whole entry): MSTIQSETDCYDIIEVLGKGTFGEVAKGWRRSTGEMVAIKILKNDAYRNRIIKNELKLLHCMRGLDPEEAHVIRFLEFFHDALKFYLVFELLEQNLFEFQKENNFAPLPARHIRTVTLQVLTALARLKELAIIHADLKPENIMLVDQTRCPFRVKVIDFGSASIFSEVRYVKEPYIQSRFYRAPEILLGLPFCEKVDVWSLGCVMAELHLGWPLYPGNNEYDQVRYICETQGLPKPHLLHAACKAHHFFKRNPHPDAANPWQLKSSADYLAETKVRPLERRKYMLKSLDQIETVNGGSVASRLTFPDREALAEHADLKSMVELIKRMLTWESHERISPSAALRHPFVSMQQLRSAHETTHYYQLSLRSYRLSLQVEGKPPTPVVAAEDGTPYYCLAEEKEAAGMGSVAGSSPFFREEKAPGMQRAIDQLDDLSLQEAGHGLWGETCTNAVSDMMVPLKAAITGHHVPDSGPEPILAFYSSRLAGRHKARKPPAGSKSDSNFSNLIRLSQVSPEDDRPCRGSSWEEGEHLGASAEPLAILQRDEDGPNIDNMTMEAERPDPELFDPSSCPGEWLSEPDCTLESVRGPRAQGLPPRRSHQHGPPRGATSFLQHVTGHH

[16] = biological target: Tyrosine-protein kinase Lck (Homo sapiens, UniProt P06239); assay: Selectivity interaction (Kinase panel (KiNativ target engagement assay in Jurkat cells)) EUB0001635a LCK; type: cell-based; settings: Selectivity number of off-targets 0.0, Selectivity number of targets 233.0, Source Knowledge https://www.sciencedirect.com/science/article/pii/S2451945619300674?via%3Dihub, at 1 µM
Sequence of Tyrosine-protein kinase Lck (P06239 2-509 limits assumed): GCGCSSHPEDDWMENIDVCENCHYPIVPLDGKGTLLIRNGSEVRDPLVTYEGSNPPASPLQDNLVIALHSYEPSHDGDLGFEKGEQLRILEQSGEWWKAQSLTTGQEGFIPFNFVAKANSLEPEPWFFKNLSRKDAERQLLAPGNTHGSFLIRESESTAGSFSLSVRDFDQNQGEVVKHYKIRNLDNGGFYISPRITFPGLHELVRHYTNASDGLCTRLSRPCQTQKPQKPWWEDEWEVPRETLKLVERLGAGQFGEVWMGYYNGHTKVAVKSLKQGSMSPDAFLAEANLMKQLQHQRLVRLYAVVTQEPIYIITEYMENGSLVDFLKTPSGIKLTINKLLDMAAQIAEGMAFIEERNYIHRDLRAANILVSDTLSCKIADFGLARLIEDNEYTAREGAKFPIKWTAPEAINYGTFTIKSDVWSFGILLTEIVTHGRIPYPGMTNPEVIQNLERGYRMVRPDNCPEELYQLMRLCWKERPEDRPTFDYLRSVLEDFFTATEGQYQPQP

Sequence of Cyclin-dependent kinase 11B (Homo sapiens) (P21127 whole entry): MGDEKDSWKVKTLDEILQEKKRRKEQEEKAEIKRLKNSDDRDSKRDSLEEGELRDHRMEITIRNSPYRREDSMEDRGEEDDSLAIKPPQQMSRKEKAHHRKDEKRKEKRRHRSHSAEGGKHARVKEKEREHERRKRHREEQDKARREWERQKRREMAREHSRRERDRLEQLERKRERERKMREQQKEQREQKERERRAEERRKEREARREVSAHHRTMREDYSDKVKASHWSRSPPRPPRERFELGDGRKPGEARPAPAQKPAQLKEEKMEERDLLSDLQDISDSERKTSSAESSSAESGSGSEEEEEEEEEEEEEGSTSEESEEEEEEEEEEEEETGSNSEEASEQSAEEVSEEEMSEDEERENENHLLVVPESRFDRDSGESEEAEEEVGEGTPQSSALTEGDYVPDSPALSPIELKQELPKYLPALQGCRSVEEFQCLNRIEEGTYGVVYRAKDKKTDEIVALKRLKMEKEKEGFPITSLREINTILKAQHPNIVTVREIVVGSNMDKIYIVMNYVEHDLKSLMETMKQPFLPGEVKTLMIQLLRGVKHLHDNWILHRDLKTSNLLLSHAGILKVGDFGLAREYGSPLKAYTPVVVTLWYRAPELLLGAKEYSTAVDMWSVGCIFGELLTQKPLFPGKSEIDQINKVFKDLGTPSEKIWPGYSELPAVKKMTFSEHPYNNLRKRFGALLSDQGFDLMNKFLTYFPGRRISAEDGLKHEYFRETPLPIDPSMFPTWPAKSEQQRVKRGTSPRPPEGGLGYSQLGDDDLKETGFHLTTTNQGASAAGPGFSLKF
Sequence of Serine/threonine-protein kinase 32A (Homo sapiens) (Q8WU08 whole entry): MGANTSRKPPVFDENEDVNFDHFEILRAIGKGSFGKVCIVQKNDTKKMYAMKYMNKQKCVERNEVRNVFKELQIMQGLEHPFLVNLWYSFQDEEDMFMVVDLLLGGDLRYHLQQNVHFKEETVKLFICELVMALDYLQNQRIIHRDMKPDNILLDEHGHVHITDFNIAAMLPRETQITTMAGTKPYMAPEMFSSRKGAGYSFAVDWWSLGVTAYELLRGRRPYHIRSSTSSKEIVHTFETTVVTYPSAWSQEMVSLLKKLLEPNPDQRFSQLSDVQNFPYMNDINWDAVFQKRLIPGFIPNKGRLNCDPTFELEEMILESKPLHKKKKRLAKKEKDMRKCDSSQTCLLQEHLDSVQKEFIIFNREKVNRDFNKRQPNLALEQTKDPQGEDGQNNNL

SMILES: COc1cc(Nc2nc(C)cc(-c3cnn4nc(OC)ccc34)n2)cc(C(F)(F)F)c1
% of control [1]: 100% | % of control [2]: 63%

SMILES: CN(C)C/C=C/C(=O)Nc1ccc(C(=O)N2CCCC(Nc3ncc(Cl)c(-c4c[nH]c5ccccc45)n3)C2)cc1 (centres undefined)
% of control [3]: 97%

% of inhibition [4]: 6.4%
SMILES: CC[C@@H]1[C@H](F)C(=O)N[C@@H]1COc1nccc2cc(C(N)=O)c(OC)cc12 [ZIMLOVISERTIB]

% activity [5]: > 90%
SMILES: CNCCN1CCC(c2cc(CN(C)C(=O)c3cccc(Oc4ccccc4)c3)ccn2)CC1

% of control [6]: 45.9%
SMILES: Cn1cc(-n2cnc3c(NCc4nc5cc(Cl)c(Cl)cc5[nH]4)nc(N4CCOCC4)nc32)cn1

% of control [7]: 100%
SMILES: CCN(CC)CCCCNc1ncc2cc(-c3cc(OC)cc(OC)c3)c(NC(=O)NC(C)(C)C)nc2n1

SMILES: COCC(=O)NC/C=C/c1ccc2ncnc(Nc3ccc(Oc4ccc(C)nc4)c(C)c3)c2c1 [CP-724714]
% of control [8]: 100% | % of control [9]: 93%

% of control ([10]; at 1 µM): 93% | % of control ([10]; at 5 µM): 89% | % of control ([11]; at 1 µM): 88% | % of control ([11]; at 5 µM): 91%
SMILES: C=CC(=O)Nc1cccc(C(=O)Nc2ccc(Nc3cc(-c4[nH]c(SC)nc4C)ccn3)cc2)c1

SMILES: C=CC(=O)Nc1cc(-n2c(=O)ccc3cnc4ccc(-c5ccc(NS(C)(=O)=O)cc5)cc4c32)ccc1C
% of control ([12]; at 1 µM): 92% | % of control ([12]; at 10 µM): 95%

SMILES: N#Cc1cccc(-c2c[nH]c3ncnc(N4CCOCC4)c23)c1
% of control [13]: 92% | % of inhibition [14]: -28%

SMILES: O[C@H]1CC[C@H](Nc2ncc3nc(Nc4c(F)cc(F)cc4F)n([C@H]4CCOC4)c3n2)CC1
% of control [15]: 98%

SMILES: C=CC(=O)Nc1ccc(C(=O)Nc2[nH]nc3c2CN(C(=O)N[C@H](CN(C)C)c2ccccc2)C3(C)C)cc1
% of engagement [16]: -3.6%
